Test results from ChEMBL document CHEMBL1201862, “PubChem BioAssay data set” (2004).
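Compound exposure: 48 hours, 5 concentrations, 96-well plates. Abbreviation: GI50, concentration required for 50% inhibition of growth.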 Activity calls are given as the source filed them. Cut-off read from the data, not from the text of the source: active = GI50 up to about 1.1 µM and inactive = higher.

Columns and labels:
Experiment in all cases: NCI-60 cell line screen, 48 h
HCT-116 = tested on: HCT-116
SR = tested on: SR
UO-31 = tested on: UO-31
SF-268 = tested on: SF-268
HT-29 = tested on: HT-29
RPMI-8226 = tested on: RPMI-8226
LOX IMVI = tested on: LOX IMVI
SNB-75 = tested on: SNB-75
MOLT-4 = tested on: MOLT-4
ACHN = tested on: ACHN
SK-MEL-2 = tested on: SK-MEL-2
RXF 631 = tested on: RXF 631
CCRF-CEM = tested on: CCRF-CEM
TK-10 = tested on: TK-10
K562 = tested on: K562
KM-20L2 = tested on: KM-20L2
SF-539 = tested on: SF-539
A498 = tested on: A498
SK-MEL-5 = tested on: SK-MEL-5
LXFL 529 = tested on: LXFL 529
NCI-H460 = tested on: NCI-H460
EKVX = tested on: EKVX
DMS-114 = tested on: DMS-114
HCC 2998 = tested on: HCC 2998
UACC-257 = tested on: UACC-257
KM12 = tested on: KM12
SNB-19 = tested on: SNB-19
NCI-H23 = tested on: NCI-H23
HOP-92 = tested on: HOP-92
NCI-H226 = tested on: NCI-H226
HOP-62 = tested on: HOP-62
DLD-1 = tested on: DLD-1
M14 = tested on: M14
SF-295 = tested on: SF-295
HOP-18 = tested on: HOP-18
DMS-273 = tested on: DMS-273
M19-MEL = tested on: M19-MEL
HL-60 = tested on: HL-60
HCT-15 = tested on: HCT-15
786-0 = tested on: 786-0
RXF 393 = tested on: RXF 393
Malme-3M = tested on: Malme-3M
OVCAR-4 = tested on: OVCAR-4
IGROV-1 = tested on: IGROV-1
SNB-78 = tested on: SNB-78
XF498 = tested on: XF498
SW-620 = tested on: SW-620
OVCAR-5 = tested on: OVCAR-5
OVCAR-3 = tested on: OVCAR-3
SN12C = tested on: SN12C
UACC-62 = tested on: UACC-62
CAKI-1 = tested on: CAKI-1
SK-MEL-28 = tested on: SK-MEL-28
A549 = tested on: A549
OVCAR-8 = tested on: OVCAR-8
NCI-H522 = tested on: NCI-H522
SK-OV-3 = tested on: SK-OV-3
U-251 = tested on: U-251
COLO 205 = tested on: COLO 205

## CCOC(=O)NC(=O)c1cn(CCOC(=O)CCCCCCCCC(=O)OCCn2cc(C(=O)NC(=O)OCC)c(=O)[nH]c2=O)c(=O)[nH]c1=O
HCT-116
  GI50: > 100 µM (inactive)
SR
  GI50: > 100 µM (inactive)
UO-31
  GI50: > 100 µM (inactive)
SF-268
  GI50: > 100 µM (inactive)
HT-29
  GI50: > 100 µM (inactive)
RPMI-8226
  GI50: > 100 µM (inactive)
LOX IMVI
  GI50: > 100 µM (inactive)
SNB-75
  GI50: > 100 µM (inactive)
MOLT-4
  GI50: > 100 µM (inactive)
ACHN
  GI50: > 100 µM (inactive)
SK-MEL-2
  GI50: > 100 µM (inactive)
RXF 631
  GI50: > 100 µM (inactive)
CCRF-CEM
  GI50: > 100 µM (inactive)
TK-10
  GI50: > 100 µM (inactive)
K562
  GI50: > 100 µM (inactive)
KM-20L2
  GI50: > 100 µM (inactive)
SF-539
  GI50: > 100 µM (inactive)
A498
  GI50: > 100 µM (inactive)
SK-MEL-5
  GI50: > 100 µM (inactive)
LXFL 529
  GI50: > 100 µM (inactive)
NCI-H460
  GI50: > 100 µM (inactive)
EKVX
  GI50: > 100 µM (inactive)
DMS-114
  GI50: > 100 µM (inactive)
HCC 2998
  GI50: > 100 µM (inactive)
UACC-257
  GI50: > 100 µM (inactive)
KM12
  GI50: > 100 µM (inactive)
SNB-19
  GI50: > 100 µM (inactive)
NCI-H23
  GI50: 23.9 µM (inactive)
HOP-92
  GI50: > 100 µM (inactive)
NCI-H226
  GI50: > 100 µM (inactive)
HOP-62
  GI50: > 100 µM (inactive)
DLD-1
  GI50: > 100 µM (inactive)
M14
  GI50: > 100 µM (inactive)
SF-295
  GI50: > 100 µM (inactive)
HOP-18
  GI50: > 100 µM (inactive)
DMS-273
  GI50: > 100 µM (inactive)
M19-MEL
  GI50: > 100 µM (inactive)
HL-60
  GI50: > 100 µM (inactive)
HCT-15
  GI50: > 100 µM
786-0
  GI50: > 100 µM (inactive)
RXF 393
  GI50: > 100 µM (inactive)
Malme-3M
  GI50: > 100 µM (inactive)
OVCAR-4
  GI50: > 100 µM (inactive)
IGROV-1
  GI50: > 100 µM (inactive)
SNB-78
  GI50: > 100 µM (inactive)
XF498
  GI50: > 100 µM (inactive)
SW-620
  GI50: > 100 µM (inactive)
OVCAR-5
  GI50: > 100 µM (inactive)
OVCAR-3
  GI50: > 100 µM (inactive)
SN12C
  GI50: > 100 µM (inactive)
UACC-62
  GI50: > 100 µM (inactive)
CAKI-1
  GI50: > 100 µM (inactive)
SK-MEL-28
  GI50: > 100 µM (inactive)
A549
  GI50: > 100 µM (inactive)
OVCAR-8
  GI50: > 100 µM (inactive)

## COc1ccc(CC(=O)NCCc2ccc(OC)c(OC)c2OC)cc1
HCT-116
  GI50: > 100 µM (inactive)
SR
  GI50: > 100 µM (inactive)
UO-31
  GI50: > 100 µM (inactive)
SF-268
  GI50: > 100 µM (inactive)
HT-29
  GI50: > 100 µM (inactive)
RPMI-8226
  GI50: > 100 µM (inactive)
SNB-75
  GI50: > 100 µM (inactive)
MOLT-4
  GI50: > 100 µM (inactive)
ACHN
  GI50: > 100 µM (inactive)
NCI-H522
  GI50: > 100 µM (inactive)
SK-MEL-2
  GI50: > 100 µM (inactive)
RXF 631
  GI50: > 100 µM (inactive)
CCRF-CEM
  GI50: > 100 µM (inactive)
SK-OV-3
  GI50: > 100 µM (inactive)
TK-10
  GI50: > 100 µM (inactive)
K562
  GI50: > 100 µM (inactive)
KM-20L2
  GI50: > 100 µM (inactive)
SF-539
  GI50: 16.4 µM (inactive)
A498
  GI50: > 100 µM (inactive)
SK-MEL-5
  GI50: > 100 µM (inactive)
LXFL 529
  GI50: > 100 µM (inactive)
NCI-H460
  GI50: > 100 µM (inactive)
EKVX
  GI50: > 100 µM (inactive)
DMS-114
  GI50: > 100 µM (inactive)
HCC 2998
  GI50: > 100 µM (inactive)
UACC-257
  GI50: > 100 µM (inactive)
KM12
  GI50: > 100 µM (inactive)
SNB-19
  GI50: > 100 µM (inactive)
NCI-H23
  GI50: > 100 µM (inactive)
NCI-H226
  GI50: > 100 µM (inactive)
HOP-62
  GI50: > 100 µM (inactive)
DLD-1
  GI50: > 100 µM (inactive)
M14
  GI50: > 100 µM (inactive)
SF-295
  GI50: > 100 µM (inactive)
HOP-18
  GI50: > 100 µM (inactive)
M19-MEL
  GI50: > 100 µM (inactive)
786-0
  GI50: 41.6 µM (inactive)
RXF 393
  GI50: > 100 µM (inactive)
Malme-3M
  GI50: > 100 µM (inactive)
U-251
  GI50: > 100 µM (inactive)
IGROV-1
  GI50: > 100 µM (inactive)
SNB-78
  GI50: > 100 µM (inactive)
XF498
  GI50: > 100 µM (inactive)
SW-620
  GI50: > 100 µM (inactive)
OVCAR-5
  GI50: > 100 µM (inactive)
SN12C
  GI50: > 100 µM (inactive)
SK-MEL-28
  GI50: > 100 µM (inactive)
A549
  GI50: 30.1 µM (inactive)
OVCAR-8
  GI50: > 100 µM (inactive)

## O=C(NC1C=Nc2ccccc2NC1=O)c1ccccc1Cl (configuration not stated)
HCT-116
  GI50: 39.1 µM (inactive)
SR
  GI50: 31.8 µM (inactive)
UO-31
  GI50: 24.9 µM (inactive)
SF-268
  GI50: 51.9 µM (inactive)
HT-29
  GI50: 55.7 µM (inactive)
LOX IMVI
  GI50: 18.2 µM (inactive)
SNB-75
  GI50: 50 µM (inactive)
MOLT-4
  GI50: 12.6 µM (inactive)
ACHN
  GI50: 39.6 µM (inactive)
NCI-H522
  GI50: 20.1 µM (inactive)
SK-MEL-2
  GI50: 36.9 µM (inactive)
RXF 631
  GI50: 22 µM (inactive)
CCRF-CEM
  GI50: 14 µM (inactive)
SK-OV-3
  GI50: > 100 µM (inactive)
TK-10
  GI50: 46.2 µM (inactive)
K562
  GI50: 11.1 µM (inactive)
KM-20L2
  GI50: 55.6 µM (inactive)
SF-539
  GI50: > 100 µM (inactive)
A498
  GI50: 28.8 µM (inactive)
SK-MEL-5
  GI50: 45.8 µM (inactive)
LXFL 529
  GI50: 28.6 µM (inactive)
NCI-H460
  GI50: 44 µM (inactive)
EKVX
  GI50: 74.8 µM (inactive)
DMS-114
  GI50: 16.1 µM (inactive)
HCC 2998
  GI50: 56.4 µM (inactive)
UACC-257
  GI50: 38.5 µM (inactive)
KM12
  GI50: 50.7 µM (inactive)
SNB-19
  GI50: > 100 µM (inactive)
NCI-H23
  GI50: 43.9 µM (inactive)
HOP-92
  GI50: 31.4 µM (inactive)
NCI-H226
  GI50: 94 µM (inactive)
HOP-62
  GI50: > 100 µM (inactive)
DLD-1
  GI50: 59.2 µM (inactive)
M14
  GI50: 80.5 µM (inactive)
SF-295
  GI50: 57.1 µM (inactive)
HOP-18
  GI50: 48 µM (inactive)
DMS-273
  GI50: 26.8 µM (inactive)
M19-MEL
  GI50: 57 µM (inactive)
HL-60
  GI50: 13.5 µM (inactive)
HCT-15
  GI50: 33.7 µM
786-0
  GI50: 56 µM (inactive)
RXF 393
  GI50: 13 µM (inactive)
Malme-3M
  GI50: 58.1 µM (inactive)
U-251
  GI50: 28.8 µM (inactive)
OVCAR-4
  GI50: 33.3 µM (inactive)
IGROV-1
  GI50: 36.8 µM (inactive)
SNB-78
  GI50: 93.1 µM (inactive)
XF498
  GI50: 22.2 µM (inactive)
SW-620
  GI50: 13.6 µM (inactive)
OVCAR-5
  GI50: > 100 µM (inactive)
OVCAR-3
  GI50: 28.4 µM (inactive)
SN12C
  GI50: 64.4 µM (inactive)
COLO 205
  GI50: 22.7 µM (inactive)
UACC-62
  GI50: 33.6 µM (inactive)
CAKI-1
  GI50: 46.8 µM (inactive)
SK-MEL-28
  GI50: > 100 µM (inactive)
A549
  GI50: 48 µM (inactive)
OVCAR-8
  GI50: 43 µM (inactive)
